# Columns and labels:
# HUVEC = experiment: Proliferation assay; format: cell-based; settings: Homo sapiens, 72 h, n = 4
# Protocol: Supplementary Method 5: Biological Assays […]
# (§1) 2. Proliferation and cytotoxicity assay
# (§2) Cells and culture conditions
# (§3) The following cell lines and media were used:
# (§4) Cell line Cell culture medium
# (§5) Cells were grown in the appropriate cell culture medium supplemented with 10 mL/L ultraglutamine 1 […]
# (§6) heat inactivated fetal bovine serum (GIBCO Life Technologies 10270-106) at 37 °C in 5% CO 2 in high density polyethylene flasks (NUNC 156340).
# (§7) To decide if the compounds have an antiproliferative and/or a cytotoxic effect on human cells, cell death and retardation of cell proliferation were assessed. Under our experimental conditions, the optical density measured from the CellTiter-Blue® reagent and methylene blue assay is proportional to the […]
# The test substances were dissolved in DMSO and further diluted in the cell culture medium. The adherent cells were harvested at the logarithmic growth phase after soft trypsinization using 0.25% trypsin in PBS containing 0.02% EDTA (Biochrom KG L2163). For each experiment, approximately 10,000 cells were seeded with 0.1 mL culture medium per well of the 96-well microplates (HUVEC: flat bottomed NUNC 167008, K-562: round bottomed NUNC 163320). To test the antiproliferative […]
# effect of test compounds on HUVEC and K-562, the cells were incubated for 72 hours in plates prepared with control and different dilutions of test substances. […]
# of proliferation compared to the untreated control. […]
# Cells were incubated with dilutions of the test substances in microplates for 72 hours at 37 °C in a humidified atmosphere and 5% CO 2. […]
# cytotoxicity and the inhibition of cell proliferation. The number of viable cells was determined subsequent to staining with CellTiter-Blue® reagent or methylene blue. […]
# HUVEC and HeLa cells: The adherent HUVEC and HeLa cells were fixed by glutaraldehyde (MERCK […]
# gently washing, the stain was eluted by adding 0.2 mL of hydrochloric acid (0.33 M) to each well. The optical densities were measured at 660 nm (methylene blue) in SUNRISE microplate reader (TECAN).
# General remarks: Signals from the methylene blue and CellTiter-Blue® reagent are proportional to the number of viable cells. A repeat determination has been conducted in all experiments, four replicates were assayed. The calculations of the different values of GI 50 and CC 50 were performed with the software
# [1] = system: Mycobacterium vaccae (JMRC:STI:10670); experiment: MIC determination; format: cell-based; settings: for MIC: Mycolicibacterium vaccae, n = 1; for Selectivity index: ratio between CC50 (HeLa) and MIC M. vaccae; for antimycobacterial activity (in words): M. vaccae
# Protocol: Supplementary Method 5: Biological Assays
# Minimal inhibitory concentrations were determined against Mycobacterium vaccae (JMRC:STI:10670) and Mycobacterium smegmatis (JMRC:STH:00056). M. vaccae and M. smegmatis cultures were grown 48 h at 32 °C in a medium consisting of glycerol (1%), beef extract (0.5%), peptone from casein (0.5%) and sodium chloride (0.3%). Serial dilutions of the DMSO test item solutions (1 mg∙mL -1) were prepared at 100 µL scale in 96 well plates in Mueller Hinton broth starting at 200 µg∙mL -1 (highest) to cover a final concentration range of 100 to 0.05 µg∙mL -1. Each plate was equipped with a series of DMSO and ciprofloxacin dilutions as quality controls. 96 well plates were inoculated with 100 µL diluted culture (Mueller Hinton bullion) at a final concentration of 5∙10 5 and incubated at 37 °C for 42 h. Growth/no growth was visually inspected.
# as §1, §2, §3, §4, §5, §6, §7
# The test substances were dissolved in DMSO and further diluted in the cell culture medium. The adherent cells were harvested at the logarithmic growth phase after soft trypsinization using 0.25% trypsin in PBS containing 0.02% EDTA (Biochrom KG L2163). For each experiment, approximately 10,000 cells were seeded with 0.1 mL culture medium per well of the 96-well microplates (HUVEC: flat bottomed NUNC 167008, K-562: round bottomed NUNC 163320). To test the antiproliferative
smiles,measurement,setting,value
COC(=O)c1cc([N+](=O)[O-])c2sc(N3CCC4(CC3)OC[C@H](C)O4)nc(=O)c2c1 [Compound 6a],GI50,HUVEC,80.6 ± 5 µM
same,MIC,[1],0.24 µM
same,Selectivity index,[1],> 500
CC(C)OC(=O)c1cc([N+](=O)[O-])c2sc(N3CCC4(CC3)OC[C@H](C)O4)nc(=O)c2c1 [Compound 6c],GI50,HUVEC,> 111 µM
same,MIC,[1],0.22 µM
same,Selectivity index,[1],> 500
C[C@H]1COC2(CCN(c3nc(=O)c4cc(C(=O)O)cc([N+](=O)[O-])c4s3)CC2)O1 [Compound 8],GI50,HUVEC,> 123 µM
same,antimycobacterial activity (in words),[1],moderate activity
same,MIC,[1],0.98 µM
same,Selectivity index,[1],> 125
C[C@H]1COC2(CCN(c3nc(=O)c4cc(Br)cc([N+](=O)[O-])c4s3)CC2)O1 [Compound 11],GI50,HUVEC,> 113 µM
same,antimycobacterial activity (in words),[1],similarly active as BTZ-043 (1)
same,MIC,[1],0.004 µM
same,Selectivity index,[1],> 31236
C[C@H]1COC2(CCN(c3nc(=O)c4cccc([N+](=O)[O-])c4s3)CC2)O1 [Compound 23],GI50,HUVEC,> 137 µM
same,antimycobacterial activity (in words),[1],significantly lower activity than 1
same,MIC,[1]; 42 h,1.1 µM
same,Selectivity index,[1],> 125
C[C@H]1COC2(CCN(c3nc(=O)c4cc(I)cc([N+](=O)[O-])c4s3)CC2)O1 [Compound 10],GI50,HUVEC,> 102 µM
same,antimycobacterial activity (in words),[1],similarly active as BTZ-043 (1)
same,MIC,[1],0.006 µM
same,Selectivity index,[1],> 16114
CON(C)C(=O)c1cc([N+](=O)[O-])c2sc(N3CCC4(CC3)OC[C@H](C)O4)nc(=O)c2c1 [Compound 7f],GI50,HUVEC,98.5 ± 3.3 µM
same,MIC,[1],13.9 µM
same,Selectivity index,[1],> 8
C[C@H]1COC2(CCN(c3nc(=O)c4cc(C#N)cc([N+](=O)[O-])c4s3)CC2)O1 [Compound 9],GI50,HUVEC,49.9 ± 4.1 µM
same,antimycobacterial activity (in words),[1],similarly active as BTZ-043 (1)
same,MIC,[1],0.016 µM
same,Selectivity index,[1],> 8062
C[C@H]1COC2(CCN(c3nc(=O)c4cc(C(=O)N(C)C)cc([N+](=O)[O-])c4s3)CC2)O1 [Compound 7c],GI50,HUVEC,> 115 µM
same,MIC,[1],28.8 µM
same,Selectivity index,[1],> 4

# — PMC11227536, “Modulation of the Meisenheimer complex metabolism of nitro-benzothiazinones by targeted C-6 substitution” (Communications Chemistry, 2024)
